In the supplement of paper PMC10307832:

Legend:
Assay in all cases: relative viability (nuclei count vs DMSO), 5 days (fraction); higher = more cells survive
COR-L23 = tested on: COR-L23
In short: (§1)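 Medians of duplicate plates are given as relative viability. That measure is the nuclei count in treated wells divided by the count in vehicle wells. Counts were taken on 4× images of lung cancer cell lines in 1536-well plates, 5 days after pin-tool dosing the day after seeding with one drug alone or a fixed anchor-drug dose plus five library-drug doses (not always all listed) in √10 steps.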

ChaGo-K-1 = tested on: ChaGo-K-1
In short: as §1

EPLC-272H = tested on: EPLC-272H
In short: as §1

H3255 = tested on: H3255
In short: as §1

HARA = tested on: HARA
In short: as §1

HCC-78 = tested on: HCC-78
In short: as §1

HOP-62 = tested on: HOP-62
In short: as §1

LCLC-97TM1 = tested on: LCLC-97TM1
In short: as §1

LXF-289 = tested on: LXF-289
In short: as §1

NCI-H1395 = tested on: NCI-H1395
In short: as §1

NCI-H1437 = tested on: NCI-H1437
In short: as §1

NCI-H1650 = tested on: NCI-H1650
In short: as §1

NCI-H1666 = tested on: NCI-H1666
In short: as §1

NCI-H1793 = tested on: NCI-H1793
In short: as §1

NCI-H1944 = tested on: NCI-H1944
In short: as §1

NCI-H2085 = tested on: NCI-H2085
In short: as §1

NCI-H2087 = tested on: NCI-H2087
In short: as §1

NCI-H2126 = tested on: NCI-H2126
In short: as §1

NCI-H3122 = tested on: NCI-H3122
In short: as §1

NCI-H441 = tested on: NCI-H441
In short: as §1

NCI-H596 = tested on: NCI-H596
In short: as §1

NCI-H661 = tested on: NCI-H661
In short: as §1

PC-14 = tested on: PC-14
In short: as §1

CCNC(=O)c1noc(-c2cc(C(C)C)c(O)cc2O)c1-c1ccc(CN2CCOCC2)cc1 [Luminespib] + Cc1nc(Nc2ncc(C(=O)Nc3c(C)cccc3Cl)s2)cc(N2CCN(CCO)CC2)n1 [Dasatinib] (partner 0.075 µM)
relative viability (COR-L23; first compound 0.002 µM): 0.6 | relative viability (COR-L23; first compound 0.006325 µM): 0.363 | relative viability (COR-L23; first compound 0.02 µM): 0.433 | relative viability (COR-L23; first compound 0.06325 µM): 0.0438 | relative viability (COR-L23; first compound 0.2 µM): 0.0462 | relative viability (ChaGo-K-1; first compound 0.002 µM): 0.634 | relative viability (ChaGo-K-1; first compound 0.006325 µM): 0.648 | relative viability (ChaGo-K-1; first compound 0.02 µM): 0.539 | relative viability (ChaGo-K-1; first compound 0.06325 µM): 0.376 | relative viability (ChaGo-K-1; first compound 0.2 µM): 0.143 | relative viability (EPLC-272H; first compound 0.002 µM): 0.365 | relative viability (EPLC-272H; first compound 0.006325 µM): 0.349 | relative viability (EPLC-272H; first compound 0.06325 µM): 0.35 | relative viability (EPLC-272H; first compound 0.2 µM): 0.0778 | relative viability (H3255; first compound 0.002 µM): 0.375 | relative viability (H3255; first compound 0.006325 µM): 0.311 | relative viability (H3255; first compound 0.06325 µM): 0.406 | relative viability (H3255; first compound 0.2 µM): 0.197 | relative viability (HARA; first compound 0.002 µM): 0.224 | relative viability (HARA; first compound 0.006325 µM): 0.279 | relative viability (HARA; first compound 0.02 µM): 0.205 | relative viability (HARA; first compound 0.06325 µM): 0.0633 | relative viability (HARA; first compound 0.2 µM): 0.0774 | relative viability (HCC-78; first compound 0.002 µM): 0.373 | relative viability (HCC-78; first compound 0.006325 µM): 0.251 | relative viability (HCC-78; first compound 0.06325 µM): 0.455 | relative viability (HCC-78; first compound 0.2 µM): 0.204 | relative viability (HOP-62; first compound 0.002 µM): 0.734 | relative viability (HOP-62; first compound 0.006325 µM): 0.611 | relative viability (HOP-62; first compound 0.02 µM): 0.603 | relative viability (HOP-62; first compound 0.06325 µM): 0.408 | relative viability (HOP-62; first compound 0.2 µM): 0.102 | relative viability (LCLC-97TM1; first compound 0.002 µM): 0.884 | relative viability (LCLC-97TM1; first compound 0.006325 µM): 0.721 | relative viability (LCLC-97TM1; first compound 0.02 µM): 0.986 | relative viability (LCLC-97TM1; first compound 0.06325 µM): 0.726 | relative viability (LCLC-97TM1; first compound 0.2 µM): 0.106 | relative viability (LXF-289; first compound 0.002 µM): 0.271 | relative viability (LXF-289; first compound 0.006325 µM): 0.238 | relative viability (LXF-289; first compound 0.02 µM): 0.187 | relative viability (LXF-289; first compound 0.06325 µM): 0.0634 | relative viability (LXF-289; first compound 0.2 µM): 0.0395 | relative viability (NCI-H1395; first compound 0.002 µM): 0.418 | relative viability (NCI-H1395; first compound 0.006325 µM): 0.386 | relative viability (NCI-H1395; first compound 0.02 µM): 0.366 | relative viability (NCI-H1395; first compound 0.06325 µM): 0.33 | relative viability (NCI-H1395; first compound 0.2 µM): 0.309 | relative viability (NCI-H1437; first compound 0.002 µM): 0.421 | relative viability (NCI-H1437; first compound 0.006325 µM): 0.316 | relative viability (NCI-H1437; first compound 0.02 µM): 0.255 | relative viability (NCI-H1437; first compound 0.06325 µM): 0.252 | relative viability (NCI-H1437; first compound 0.2 µM): 0.126 | relative viability (NCI-H1650; first compound 0.002 µM): 0.326 | relative viability (NCI-H1650; first compound 0.006325 µM): 0.252 | relative viability (NCI-H1650; first compound 0.02 µM): 0.162 | relative viability (NCI-H1650; first compound 0.06325 µM): 0.192 | relative viability (NCI-H1650; first compound 0.2 µM): 0.168 | relative viability (NCI-H1666; first compound 0.002 µM): 0.873 | relative viability (NCI-H1666; first compound 0.006325 µM): 0.711 | relative viability (NCI-H1666; first compound 0.02 µM): 0.904 | relative viability (NCI-H1666; first compound 0.06325 µM): 0.85 | relative viability (NCI-H1666; first compound 0.2 µM): 0.748 | relative viability (NCI-H1793; first compound 0.002 µM): 0.39 | relative viability (NCI-H1793; first compound 0.006325 µM): 0.359 | relative viability (NCI-H1793; first compound 0.02 µM): 0.117 | relative viability (NCI-H1793; first compound 0.06325 µM): 0.116 | relative viability (NCI-H1793; first compound 0.2 µM): 0.14 | relative viability (NCI-H1944; first compound 0.002 µM): 0.195 | relative viability (NCI-H1944; first compound 0.006325 µM): 0.232 | relative viability (NCI-H1944; first compound 0.02 µM): 0.169 | relative viability (NCI-H1944; first compound 0.06325 µM): 0.107 | relative viability (NCI-H1944; first compound 0.2 µM): 0.132 | relative viability (NCI-H2085; first compound 0.002 µM): 0.219 | relative viability (NCI-H2085; first compound 0.006325 µM): 0.254 | relative viability (NCI-H2085; first compound 0.02 µM): 0.207 | relative viability (NCI-H2085; first compound 0.06325 µM): 0.277 | relative viability (NCI-H2085; first compound 0.2 µM): 0.266 | relative viability (NCI-H2087; first compound 0.002 µM): 0.757 | relative viability (NCI-H2087; first compound 0.006325 µM): 0.441 | relative viability (NCI-H2087; first compound 0.02 µM): 0.317 | relative viability (NCI-H2087; first compound 0.06325 µM): 0.102 | relative viability (NCI-H2087; first compound 0.2 µM): 0.086 | relative viability (NCI-H2126; first compound 0.002 µM): 0.631 | relative viability (NCI-H2126; first compound 0.006325 µM): 0.606 | relative viability (NCI-H2126; first compound 0.02 µM): 0.399 | relative viability (NCI-H2126; first compound 0.06325 µM): 0.206 | relative viability (NCI-H2126; first compound 0.2 µM): 0.221 | relative viability (NCI-H3122; first compound 0.002 µM): 0.83 | relative viability (NCI-H3122; first compound 0.006325 µM): 0.812 | relative viability (NCI-H3122; first compound 0.02 µM): 0.0669 | relative viability (NCI-H3122; first compound 0.06325 µM): 0.0573 | relative viability (NCI-H3122; first compound 0.2 µM): 0.0548 | relative viability (NCI-H441; first compound 0.002 µM): 0.579 | relative viability (NCI-H441; first compound 0.006325 µM): 0.649 | relative viability (NCI-H441; first compound 0.02 µM): 0.329 | relative viability (NCI-H441; first compound 0.06325 µM): 0.132 | relative viability (NCI-H441; first compound 0.2 µM): 0.114 | relative viability (NCI-H596; first compound 0.002 µM): 0.529 | relative viability (NCI-H596; first compound 0.006325 µM): 0.614 | relative viability (NCI-H596; first compound 0.02 µM): 0.426 | relative viability (NCI-H596; first compound 0.06325 µM): 0.479 | relative viability (NCI-H596; first compound 0.2 µM): 0.511 | relative viability (NCI-H661; first compound 0.002 µM): 0.891 | relative viability (NCI-H661; first compound 0.006325 µM): 0.954 | relative viability (NCI-H661; first compound 0.02 µM): 0.662 | relative viability (NCI-H661; first compound 0.06325 µM): 0.286 | relative viability (NCI-H661; first compound 0.2 µM): 0.233 | relative viability (PC-14; first compound 0.002 µM): 0.253 | relative viability (PC-14; first compound 0.006325 µM): 0.272 | relative viability (PC-14; first compound 0.02 µM): 0.0443 | relative viability (PC-14; first compound 0.06325 µM): 0.0382 | relative viability (PC-14; first compound 0.2 µM): 0.0374
